The record followed here is patent US9421181B2, “Antihypoxic pharmaceutical composition and application thereof” (CHANGZHOU HI-TECH DISTRICT MULTIPLE DIMENSION INDUSTRY …, priority 2013, dated 2016).

Structures can show the parent of a compound that is named as a salt.

The subject of experiment [1] is mice model of acute brain hypoxia. Description: Mice model of acute brain hypoxia: breathing time after decollation. Conditions: intragastric once a day 7 days. The experiment is classed as in vivo, Kunming mice. On the procedure: (§1) Randomly group 70 Kunming male mice into 7 groups: control group, group of L-carnitine 450 mg/kg, group of trimetazidine 9 mg/kg, group of vinpocetine 1.5 mg/kg, group of L-carnitine 450+trimetazidine 9 mg/kg, group of trimetazidine 9+vinpocetine 1.5 mg/kg, and group of L-carnitine 450+trimetazidine 9+vinpocetine 1.5 mg/kg, with each group of 10 mice. Administer […] preparation intragastrically to the mice of experimental groups, and the same volume of normal saline to control group once a day for consecutive 7 days. One hour after the last administration, behead the mice immediately from behind the ear, and stopwatch the breathing time of mice after their decollation.

The test system of experiment [2] is brain tissue of the mice. Put plainly: Content of EAA (Glu, Asp, GABA, Gly) in brain tissue after decollation. The experiment is classed as in vivo, Kunming mice. The following applies: intragastric 7 days. On the procedure: as §1
Biochemical indicator test of brain tissue: After death of the mice, immediately get their brain tissues in ice bath, wash them in ice saline to remove the residual blood, and then add ice […] according to the proportion of 1:9. Under the condition of ice bath, high-speed homogenate machine (10 s per times, at intervals of 15 s for 4 times) is used to make the brain tissue into 10% cerebral homogenate. Centrifuge the homogenate under the temperature of 4° C. with the speed of 2000 r/min for 5 min to separate the supernatant, and detect the content of glutamic acid (Glu), aspartic acid (Asp), aminobutyric acid (GABA), and glycine (Gly) in the brain tissue of the mice by amino acid analyzer. After brain injury, the content of Glu, Asp, GABA and Gly, etc. (representatives of the excitatory amino acid (EAA)) in the brain is higher. In particular, one of the important mechanisms that could cause the death of secondary brain injury neurons is the excessive release of Glu. An important reason that leads to delayed neuronal death is the cascade of damage due to calcium overload in the neurons, which is caused by the activation of receptor N-methyl-D-aspartate (NMDA) by Glu. The degree to which the mitochondrial function is damaged determines the death method of neurons [Clemens J A, Stephenson D T, Smalsting E B. Global ischemia activate nuclear. Storke, 1997, 28:1073-1076].

In experiment [3] the test system is mice under the condition of normobaric hypoxia. Description: Hypoxia tolerance and survival time of mice under normobaric hypoxia (sealed bottle with soda lime). The class given is in vivo. Conditions: intragastric once a day 7 days. On the procedure:
Choose 100 male mice with weight of 20±2 g, randomly group them into 10 by weight with each group of 10 mice, and then inject 10 ml/kg preparation to experimental groups, and the same volume of normal saline to control group by tail intravenous injection once a day for consecutive 7 days. One hour after the last injection, put each mouse into a 160 ml wild-mouth bottle, into which 5 g soda lime has been pre-added, and then seal tightly the caps with petroleum jelly. Record survival time of the mice with death as the indicator.
Choose 80 male mice with weight of 20±2 g, randomly group them into 8 by weight with each group of 10 mice, and then administer 20 ml/kg preparation intragastrically to the mice of experimental groups, and the same volume of normal saline to control group once a day for consecutive 7 days. One hour after the last administration, put each mouse into a 160 ml wild-mouth bottle, into which 5 g soda lime has been pre-added, and then seal tightly the caps with petroleum jelly. Record survival time of the mice with death as the indicator.
Choose 40 male mice with weight of 20±2 g, randomly group them into 4 by weight with each group of 10 mice, and then administer 20 ml/kg preparation intragastrically to the mice of experimental groups, and the same volume of normal saline to control group once a day for consecutive 7 days. One hour after the last administration, put each mouse into a 160 ml wild-mouth bottle, into which 5 g soda lime has been pre-added, and then seal tightly the caps with petroleum jelly. Record survival time of the mice with death as the indicator.
Choose 370 male mice with weight of 20±2 g, randomly group them into 37 by weight with each group of 10 mice, and then inject 10 ml/kg preparation to experimental groups, and the same volume of normal saline to control group once a day for consecutive 7 days. One hour after the last injection, put each mouse into a 160 ml wild-mouth bottle, into which 5 g soda lime has been pre-added, and then seal tightly the caps with petroleum jelly. Record survival time of the mice with death as the indicator.

In the case of `COc1ccc(CN2CCNCC2)c(OC)c1OC` [Trimetazidine, trimetazidine hydrochloride], in experiment [1] (trimetazidine 9 mg/kg), the “Breathing Time after Decollation” value came out at 18.5 ± 2.1 S. Besides, in experiment [2] (trimetazidine 9 mg/kg), the “Asp content in brain tissue” value was 15.21 ± 2.06 µmol/L, the “GABA content in brain tissue” value worked out at 3.44 ± 1.12 µmol/L, the “Glu content in brain tissue” value amounted to 17.02 ± 0.99 µmol/L and the “Gly content in brain tissue” value came out at 3.49 ± 1.12 µmol/L.

`C[N+](C)(C)C[C@H](O)CC(=O)[O-]` [L-carnitine]: in experiment [3] (L-carnitine 450 mg/kg alone), the “Prolonged Survival Time” value worked out at 31.6% and the “Survival Time” value was 29.6 ± 3.6 min. Also, the “Breathing Time after Decollation” value in experiment [1] (L-carnitine 450 mg/kg) is 18.6 ± 1.2 S. Besides, in experiment [2] (L-carnitine 450 mg/kg), the “Asp content in brain tissue” value turned out to be 15.68 ± 4.23 µmol/L, the “GABA content in brain tissue” value was found to be 3.71 ± 1.11 µmol/L, the “Glu content in brain tissue” value was found to be 18.45 ± 1.22 µmol/L and the “Gly content in brain tissue” value came out at 3.54 ± 1.29 µmol/L.

Turning to `CCOC(=O)C1=C[C@]2(CC)CCCN3CCc4c(n1c1ccccc41)[C@@H]32` [Vinpocetine, vinpocetine], in experiment [3] (vinpocetine 1.5 mg/kg alone), the “Prolonged Survival Time” value turned out to be 13.6% and the “Survival Time” value was found to be 25.1 ± 4.8 min. In experiment [1] (vinpocetine 1.5 mg/kg), the “Breathing Time after Decollation” value was found to be 19.5 ± 1.5 S. In experiment [2] (vinpocetine 1.5 mg/kg), the “Asp content in brain tissue” value stood at 15.46 ± 2.21 µmol/L, the “GABA content in brain tissue” value was found to be 3.15 ± 1.05 µmol/L, the “Glu content in brain tissue” value was found to be 19.12 ± 2.01 µmol/L and the “Gly content in brain tissue” value was 3.82 ± 1.84 µmol/L.
